“Also recorded” adds a separate entry of the source. Read-outs that look alike come from different tables or passages of the source.
Assays:
[1] = tested on: mushroom bodies (Kenyon cells) of Drosophila adult brain; experiment: Aequorin luminometry of endogenous intracellular calcium oscillation in intact Drosophila brain (GAL4-aeq lines); assay type: cell-based; conditions: for EC50: Drosophila melanogaster, read-out: EC50 for reduction of oscillation amplitude; for Effect on oscillation amplitude and period/frequency: concentration not given
[2] = tested on: Honeybee KCs delayed rectifier-type current; conditions: cited from earlier work
[3] = tested on: Honeybee KCs calcium current; conditions: cited from earlier work

Compound: Nc1ccncc1 [4-aminopyridine]
- Sensitivity of oscillation in Sh5 background relative to Sh+ control (less sensitive) [1]: 10 fold
- EC50 ([1]; dose-response curves from amplitudes measured before and after treatment, […]): ~30 µM
- Effect on oscillation frequency / period ([1]; concentration not stated or dose-dependent): dose-dependent reduction of oscillation period
- Effect on oscillation amplitude ([1]; concentration not stated or dose-dependent, […]): reduce oscillation amplitude in a dose-dependent manner

Compound: [Co] [Cobalt]
- Effect on oscillation ([1]; 1–10 mM range): gradual dampening effect on oscillation

Compound: O=C(O)CN(CCOCCOCCN(CC(=O)O)CC(=O)O)CC(=O)O [EGTA]
- Effect on oscillation ([1]; 1 mM, removal of external calcium): Oscillation ceases

Compound: NCCCC(=O)O [GABA]
- Effect on oscillation amplitude and period ([1]; 1 mM): increases both amplitude and period
- Effect on oscillation amplitude and period/frequency [1]: increases both amplitude and period

Compound: CN1CCCC1c1cccnc1 (stereo not shown) [Nicotine]
- Effect on oscillation [1]: complete abolition of oscillation

Compound: C=C[C@H]1C[N@@]2CC[C@H]1C[C@@H]2[C@@H](O)c1ccnc2ccc(OC)cc12 [Quinidine]
- Effect on delayed rectifier-type current ([2]; 100 μM): blocked

Compound: CC(=O)[O-].CC[N+](CC)(CC)CC [TEA, tetraethylammonium acetate]
- Sensitivity of delayed rectifier-type current [2]: only weakly sensitive
- Effect on oscillation [1]: eliminate oscillations
- EC50 [1]: ~70 µM

Compound: Nc1c2c(nc3ccccc13)CCCC2 [Tacrine]
- EC50 ([1]; dose-response curves from amplitudes measured before and after treatment, 117Y-aeq adult brains): ~1 µM
- Effect on oscillation amplitude and period/frequency [1]: reduce both oscillation amplitude and frequency

Compound: NC1=N[C@H](O)[C@H]2[C@H]3O[C@]4(O)O[C@@H]([C@@H](O)[C@@]2(N1)[C@@H]4O)[C@]3(O)CO [Tetrodotoxin]
- Effect on oscillation [1]: cessation of oscillation within a few cycles of application; also recorded: oscillation resumes in the form of a series of spaced bursts of very high relative amplitude

Compound: COc1ccc(CCN(C)CCCC(C#N)(c2ccc(OC)c(OC)c2)C(C)C)cc1OC (stereo not shown) [Verapamil]
- Effect on calcium current [3]: affected

Compound: CCCC(=O)Nc1ncnc2c1ncn2[C@@H]1O[C@@H]2COP(=O)(O)O[C@H]2[C@H]1OC(=O)CCC [dibutyryl cAMP]
- Effect on oscillation ([1]; 1 mM, cAMP pathway): ineffective

Compound: Picrotoxin [Pierotoxin]
- Effect on oscillation amplitude and period/frequency [1]: opposite effects

Source: patent publication US7038106B1, “Detection of neural activity” (The University Court of the University of Glasgow, priority 1998, dated 2006)
